Experimental data published in patent US20250197374A1, “WEE1 DEGRADING COMPOUNDS AND USES THEREOF” (BRISTOL-MYERS SQUIBB COMPANY, priority 2023, published 2025).

What was measured:
Format in all cases: cell-based
MKN45 cells = assay: MKN45 cell proliferation assay (Cell-Titer-Glo, 120 hr); conditions: for EC50: Homo sapiens, MKN-45, 120 h, read-out: MKN45 Cell Prolif. 120 hr EC50; for MKN45 Cell Prolif. 120 hr YMin (%): minimal percent of DMSO control observed
Method in brief: (§1)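 MKN45 (400/well) and MDA-MB-231 (800/well) cells in RPMI with 10% FBS were exposed to 10-point half-log doses from 1 or 10 uM (0.1% DMSO) for 120 h at 37 °C. Viability was read by CellTiter-Glo luminescence. EC50 came from blank-subtracted, %DMSO four-parameter fits, with Ymin-obs as the lowest %DMSO observed.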

MDA-MB-231 cells = assay: MDA-MB-231 cell proliferation assay (Cell-Titer-Glo, 120 hr); conditions: for EC50: Homo sapiens, MDA-MB-231, 120 h, read-out: MDA-MB 231 Cell Prolif. 120 hr EC50; for MDA-MB 231 Cell Prolif. 120 hr YMin (%): minimal percent of DMSO control observed
Method in brief: as §1

WEE1 = biological target: T1, WEE1 (Homo sapiens, UniProt P30291+Q96SW2); assay: WEE1-ePL degradation assay (293T-LentiX, InCELL Hunter luminescence, 4 hr); conditions: for DC50: LentiX-HEK293T cells expressing WEE1-ePL, 4 hr incubation, read-out: 293T-LentiX WEE1-ePL Degradation 4 hr EC50; for 293T-LentiX WEE1-ePL Degradation 4 hr YMin (%): lower limit of fit, % of DMSO control signal remaining
T1 construct: C-terminal ePL-tagged (DiscoverX, Fremont, CA) full-length WEE1 expression construct; expressed in transfected cells; host or cells: LentiX-HEK293T (Invitrogen), lentivirally transduced; the cells also over-express GSPT1-GN
Method in brief: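 LentiX-HEK293T cells expressing C-terminally ePL-tagged full-length WEE1 plus non-degradable GSPT1-GN (G575N, N-terminal 158 aa truncated). Treated 4 h at 37 °C with a 10-point, 3-fold series from 1 or 10 µM, then read by InCELL Hunter luminescence. EC50 from four-parameter logistic fit, Ymax set by DMSO control.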

T1 sequence (P30291 whole entry): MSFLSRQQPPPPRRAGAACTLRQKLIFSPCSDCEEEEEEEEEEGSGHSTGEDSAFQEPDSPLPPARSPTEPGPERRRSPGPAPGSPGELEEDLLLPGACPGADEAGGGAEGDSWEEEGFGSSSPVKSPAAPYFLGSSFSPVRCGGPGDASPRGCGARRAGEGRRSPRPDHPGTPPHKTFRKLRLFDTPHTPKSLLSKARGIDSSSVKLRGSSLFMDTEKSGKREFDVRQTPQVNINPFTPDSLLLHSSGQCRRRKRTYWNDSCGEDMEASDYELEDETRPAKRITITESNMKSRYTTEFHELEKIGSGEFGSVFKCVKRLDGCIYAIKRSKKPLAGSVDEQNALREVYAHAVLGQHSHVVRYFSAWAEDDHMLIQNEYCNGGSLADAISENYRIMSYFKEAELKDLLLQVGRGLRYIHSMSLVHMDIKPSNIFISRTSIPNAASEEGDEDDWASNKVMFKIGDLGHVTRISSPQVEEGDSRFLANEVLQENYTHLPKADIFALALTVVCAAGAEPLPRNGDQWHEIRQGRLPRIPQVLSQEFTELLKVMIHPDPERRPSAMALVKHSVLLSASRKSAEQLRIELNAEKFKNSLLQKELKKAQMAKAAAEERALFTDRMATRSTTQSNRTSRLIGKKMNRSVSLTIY
T1 sequence (Q96SW2 whole entry): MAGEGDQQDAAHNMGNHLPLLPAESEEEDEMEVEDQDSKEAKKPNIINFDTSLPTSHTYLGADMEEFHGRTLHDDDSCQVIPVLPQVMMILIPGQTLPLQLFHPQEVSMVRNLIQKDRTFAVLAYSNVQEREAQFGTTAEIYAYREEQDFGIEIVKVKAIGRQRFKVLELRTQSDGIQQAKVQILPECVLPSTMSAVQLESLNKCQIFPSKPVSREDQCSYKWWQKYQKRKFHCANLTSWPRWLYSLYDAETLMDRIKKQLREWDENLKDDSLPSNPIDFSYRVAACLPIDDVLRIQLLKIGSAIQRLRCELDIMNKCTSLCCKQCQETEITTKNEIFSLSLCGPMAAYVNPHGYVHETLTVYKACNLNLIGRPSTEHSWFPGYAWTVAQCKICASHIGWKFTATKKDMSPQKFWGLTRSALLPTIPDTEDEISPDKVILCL
T1 sequence (Q16531 whole entry partner): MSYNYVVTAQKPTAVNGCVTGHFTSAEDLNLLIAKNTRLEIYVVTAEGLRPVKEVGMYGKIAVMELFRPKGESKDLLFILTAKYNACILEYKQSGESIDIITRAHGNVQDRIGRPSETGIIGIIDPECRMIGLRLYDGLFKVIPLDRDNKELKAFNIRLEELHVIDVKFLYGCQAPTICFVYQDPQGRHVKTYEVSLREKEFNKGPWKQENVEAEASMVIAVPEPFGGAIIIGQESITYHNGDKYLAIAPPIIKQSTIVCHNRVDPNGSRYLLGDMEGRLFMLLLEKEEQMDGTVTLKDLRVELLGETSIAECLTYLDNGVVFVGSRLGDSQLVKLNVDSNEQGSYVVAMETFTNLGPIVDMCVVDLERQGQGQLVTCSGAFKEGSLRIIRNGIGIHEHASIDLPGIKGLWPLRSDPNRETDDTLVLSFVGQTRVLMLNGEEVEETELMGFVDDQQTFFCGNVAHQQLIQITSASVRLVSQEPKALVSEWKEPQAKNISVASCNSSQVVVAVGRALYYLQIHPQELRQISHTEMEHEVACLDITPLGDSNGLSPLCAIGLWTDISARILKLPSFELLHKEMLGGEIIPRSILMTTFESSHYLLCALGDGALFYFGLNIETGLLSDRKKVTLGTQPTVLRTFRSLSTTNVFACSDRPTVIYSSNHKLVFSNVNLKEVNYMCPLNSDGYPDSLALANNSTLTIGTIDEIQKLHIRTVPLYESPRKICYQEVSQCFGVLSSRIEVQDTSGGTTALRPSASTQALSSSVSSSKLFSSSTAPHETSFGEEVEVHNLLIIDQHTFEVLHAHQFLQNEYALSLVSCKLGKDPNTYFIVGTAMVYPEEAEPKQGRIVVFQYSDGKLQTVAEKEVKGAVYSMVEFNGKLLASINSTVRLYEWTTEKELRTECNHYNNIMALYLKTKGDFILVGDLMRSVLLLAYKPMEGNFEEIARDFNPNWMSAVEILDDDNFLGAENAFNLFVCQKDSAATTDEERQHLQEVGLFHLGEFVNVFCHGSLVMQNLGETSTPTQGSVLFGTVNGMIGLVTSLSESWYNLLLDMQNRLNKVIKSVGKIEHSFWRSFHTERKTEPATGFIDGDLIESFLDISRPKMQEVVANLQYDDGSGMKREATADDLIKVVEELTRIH

SMILES | EC50 (MKN45 cells) [µM] | EC50 (MDA-MB-231 cells) [µM] | DC50 (WEE1) [µM] | 293T-LentiX WEE1-ePL Degradation 4 hr YMin (%) (WEE1) | MKN45 Cell Prolif. 120 hr YMin (%) (MKN45 cells) | MDA-MB 231 Cell Prolif. 120 hr YMin (%) (MDA-MB-231 cells)
COC[C@@H]1CN(Cc2ccc3nc(N4CCN(C5CN(C)C5)CC4)ccc3c2)C[C@H]1Oc1ccc2c(c1)CN([C@H]1CCC(=O)NC1=O)C2=O [Example 113, (3S)-3-(5-{[(3S,4S)-4-(methoxymethyl)-1-({2-[4-(1-methylazetidin-3-yl)piperazin-1-yl]quinolin-6-yl}methyl)pyrrolidin-3-yl]oxy}-1-oxo-2,3-dihydro-1H-isoindol-2-yl)piperidine-2,6-dione] | 0.004 | 0.098 | 0.009 | 29.5 | 9.0 | 55.3
COC[C@@H]1CN(Cc2cc3ccc(N4CCN(C(C)=O)C5(COC5)C4)cc3cn2)C[C@H]1Oc1ccc2c(c1)CN([C@H]1CCC(=O)NC1=O)C2=O [Example 87, (3S)-3-(5-{[(3S,4S)-1-[(7-{5-acetyl-2-oxa-5,8-diazaspiro[3.5]nonan-8-yl}isoquinolin-3-yl)methyl]-4-(methoxymethyl)pyrrolidin-3-yl]oxy}-1-oxo-2,3-dihydro-1H-isoindol-2-yl)piperidine-2,6-dione] | 0.007 | 0.112 | 0.011 | 32.2 | 9.7 | 31.8
O=C1CC[C@H](N2Cc3cc(O[C@H]4CCN(Cc5ccc6nc([C@@H]7CCO[C@]8(CCOC8)C7)ccc6c5)C4)ccc3C2=O)C(=O)N1 (relative stereo) [Example 21, rel-(3S)-3-(5-(((3S)-1-((2-(2,6-dioxaspiro[4.5]decan-9-yl)quinolin-6-yl)methyl)pyrrolidin-3-yl)oxy)-1-oxoisoindolin-2-yl)piperidine-2,6-dione] | 0.002 | 0.129 | 0.001 | 29.8 | 9.9 | 41.9
COC[C@@H]1CN(Cc2cc(F)c3nc(C4CCN(C5COC5)CC4)ccc3c2)C[C@H]1Oc1ccc2c(c1)CN([C@H]1CCC(=O)NC1=O)C2=O [Example 143, (3S)-3-(5-{[(3S,4S)-1-({8-fluoro-2-[1-(oxetan-3-yl)piperidin-4-yl]quinolin-6-yl}methyl)-4-(methoxymethyl)pyrrolidin-3-yl]oxy}-1-oxo-2,3-dihydro-1H-isoindol-2-yl)piperidine-2,6-dione] | 0.001 | 0.027 | 0.001 | 27.3 | 8.9 | 35.5
O=C1CC[C@H](N2Cc3cc(O[C@H]4CN(Cc5cc(F)c6nc(C7CCOCC7)ccc6c5)C[C@@H]4c4ccncc4)ccc3C2=O)C(=O)N1 (relative stereo) [Example 149, ((S)-3-(5-(((3R*,4S*)-1-((8-fluoro-2-(tetrahydro-2H-pyran-4-yl)quinolin-6-yl)methyl)-4-(pyridin-4-yl)pyrrolidin-3-yl)oxy)-1-oxoisoindolin-2-yl)piperidine-2,6-dione] | 0.023 | 0.429 | 0.007 | 24.4 | 11.0 | 68.7
COC[C@@H]1CN(Cc2ccc3cc(N4CCOCC4)cnc3c2)C[C@H]1Oc1ccc2c(c1)CN([C@H]1CCC(=O)NC1=O)C2=O [Example 102, (3S)-3-(5-{[(3S,4S)-4-(methoxymethyl)-1-{[3-(morpholin-4-yl)quinolin-7-yl]methyl}pyrrolidin-3-yl]oxy}-1-oxo-2,3-dihydro-1H-isoindol-2-yl)piperidine-2,6-dione] | 0.145 | 1.02 | 0.003 | 43.7 | 49.6 | 90.7
Cc1cc([C@H]2CN(Cc3cc(F)c4nc(C5CCOCC5)ccc4c3)C[C@@H]2Oc2ccc3c(c2)CN([C@H]2CCC(=O)NC2=O)C3=O)cc(C)n1 (relative stereo) [Example 147, (S)-3-(5-(((3R*,4S*)-4-(2,6-dimethylpyridin-4-yl)-1-((8-fluoro-2-(tetrahydro-2H-pyran-4-yl)quinolin-6-yl)methyl)pyrrolidin-3-yl)oxy)-1-oxoisoindolin-2-yl)piperidine-2,6-dione] | 0.308 | 0.443 | – | 93.2 | 92.2 | 79.7
O=C1CC[C@H](N2Cc3cc(O[C@@H]4CN(Cc5cc(F)c6nc(C7CCOCC7)ccc6c5)C[C@H]4c4ccncc4)ccc3C2=O)C(=O)N1 (relative stereo) [Example 118, (S)-3-(5-(((3S*,4R*)-1-((8-fluoro-2-(tetrahydro-2H-pyran-4-yl)quinolin-6-yl)methyl)-4-(pyridin-4-yl)pyrrolidin-3-yl)oxy)-1-oxoisoindolin-2-yl)piperidine-2,6-dione] | – | 0.286 | – | 92.4 | 65.0 | 70.2
COC[C@@H]1CN(Cc2cnc3nc(C4CCOCC4)ncc3c2)C[C@H]1Oc1ccc2c(c1)CN([C@H]1CCC(=O)NC1=O)C2=O [Example 134, (3S)-3-(5-{[(3S,4S)-4-(methoxymethyl)-1-{[2-(oxan-4-yl)pyrido[2,3-d]pyrimidin-6-yl]methyl}pyrrolidin-3-yl]oxy}-1-oxo-2,3-dihydro-1H-isoindol-2-yl)piperidine-2,6-dione] | 0.108 | 1.42 | 0.037 | 32.0 | 12.9 | 75.6

Further lines, with some results ahead:

EC50 (MKN45 cells) [µM] | EC50 (MDA-MB-231 cells) [µM] | DC50 (WEE1) [µM] | 293T-LentiX WEE1-ePL Degradation 4 hr YMin (%) (WEE1) | SMILES | MKN45 Cell Prolif. 120 hr YMin (%) (MKN45 cells) | MDA-MB 231 Cell Prolif. 120 hr YMin (%) (MDA-MB-231 cells)
0.001 | 0.061 | 0.001 | 29.1 | COC[C@@H]1CN(Cc2cc(F)c3nc(N4CCCC4=O)ccc3c2)C[C@H]1Oc1ccc2c(c1)CN([C@H]1CCC(=O)NC1=O)C2=O [Example 59, (3S)-3-(5-{[(3S,4S)-1-{[8-fluoro-2-(2-oxopyrrolidin-1-yl)quinolin-6-yl]methyl}-4-(methoxymethyl)pyrrolidin-3-yl]oxy}-1-oxo-2,3-dihydro-1H-isoindol-2-yl)piperidine-2,6-dione] | 10.7 | 12.1
– | 0.009 | – | 31.2 | COC[C@@H]1CN(Cc2cc(F)c3nc(C4CCC(O)CC4)ccc3c2)C[C@H]1Oc1ccc2c(c1)CN([C@H]1CCC(=O)NC1=O)C2=O (relative stereo) [Example 54, rel-(S)-3-(5-(((3S,4S)-1-((8-fluoro-2-(4-hydroxycyclohexyl)quinolin-6-yl)methyl)-4-(methoxymethyl)pyrrolidin-3-yl)oxy)-1-oxoisoindolin-2-yl)piperidine-2,6-dione] | 10.5 | 48.9
– | 0.012 | – | 27.3 | COC[C@@H]1CN(Cc2cc(F)c3nc(N4CCC(C(C)(C)O)CC4)ccc3c2)C[C@H]1Oc1ccc2c(c1)CN([C@H]1CCC(=O)NC1=O)C2=O [Example 110, (3S)-3-(5-{[(3S,4S)-1-({8-fluoro-2-[4-(2-hydroxypropan-2-yl)piperidin-1-yl]quinolin-6-yl}methyl)-4-(methoxymethyl)pyrrolidin-3-yl]oxy}-1-oxo-2,3-dihydro-1H-isoindol-2-yl)piperidine-2,6-dione] | 6.8 | 17.4
0.043 | 0.332 | 0.023 | 25.5 | COC[C@@H]1CN(Cc2cc(F)c3nc(C4CCCN4C)ncc3c2)C[C@H]1Oc1ccc2c(c1)CN([C@H]1CCC(=O)NC1=O)C2=O (relative stereo) [Example 77, rel-(3S)-3-(5-{[(3S,4S)-1-{[8-fluoro-2-(1-methylpyrrolidin-2-yl)quinazolin-6-yl]methyl}-4-(methoxymethyl)pyrrolidin-3-yl]oxy}-1-oxo-2,3-dihydro-1H-isoindol-2-yl)piperidine-2,6-dione] | 13.1 | 80.1
– | 0.019 | – | 29.9 | COC[C@@H]1CN(Cc2cc(F)c3nc(C45CC(C(C)(C)O)(C4)C5)ccc3c2)C[C@H]1Oc1ccc2c(c1)CN([C@H]1CCC(=O)NC1=O)C2=O [Example 56, (3S)-3-(5-{[(3S,4S)-1-({8-fluoro-2-[3-(2-hydroxypropan-2-yl)bicyclo[1.1.1]pentan-1-yl]quinolin-6-yl}methyl)-4-(methoxymethyl)pyrrolidin-3-yl]oxy}-1-oxo-2,3-dihydro-1H-isoindol-2-yl)piperidine-2,6-dione] | 10.0 | 25.5
